Experimental data reported in patent US7863271B2, “2-aminobenzoxazole carboxamides as 5HT3 modulators” (Albany Molecular Research, Inc., priority 2006, dated 2011).
Where a name gives a salt, the structure may show the parent alone.

Target: T1, 5-HT3 (Homo sapiens, UniProt P46098)
T1 sequence (P46098 24-478): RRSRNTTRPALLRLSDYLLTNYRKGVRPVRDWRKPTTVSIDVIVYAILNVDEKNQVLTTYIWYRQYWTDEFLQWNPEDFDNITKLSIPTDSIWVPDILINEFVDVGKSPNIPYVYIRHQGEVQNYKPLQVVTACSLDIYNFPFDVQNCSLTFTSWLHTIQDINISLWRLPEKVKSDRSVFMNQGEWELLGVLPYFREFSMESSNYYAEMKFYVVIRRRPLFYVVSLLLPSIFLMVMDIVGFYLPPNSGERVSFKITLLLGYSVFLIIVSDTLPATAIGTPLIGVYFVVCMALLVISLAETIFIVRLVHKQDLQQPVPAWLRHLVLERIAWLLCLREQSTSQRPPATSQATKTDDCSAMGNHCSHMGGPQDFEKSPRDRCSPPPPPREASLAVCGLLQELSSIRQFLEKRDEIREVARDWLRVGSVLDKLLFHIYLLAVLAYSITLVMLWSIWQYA
Test: Compound affinity for the human 5-HT3 receptor (Assay B), SPA radioligand binding with [9-methyl-3H]BRL-43694
Design: purchased Perkin Elmer
Settings: Assay B (method B unless otherwise annotated); read-out: 5-HT3 Ki
Protocol: Compound Affinity for the human 5-HT3 Receptor (Assay B)
The relative affinity of the various compounds for the human 5-HT3 receptor was measured in a radioligand binding assay, using a scintillation proximity assay (SPA) format. Test compounds were dissolved to 10 mM in 100% DMSO, then serially diluted at 10× assay concentrations in 100% DMSO in 96-well polypropylene plates and further diluted to 4× assay concentrations with the assay buffer. […] Binding reactions were set up in wells of PicoPlates-96 (Perkin Elmer) by adding consecutively 50 μL of each competing compound or buffer, SPA beads, the radioligand and 5-HT3 receptor membranes. After 60-min incubation at room temperature on a Nutator mixer, plates were centrifuged for 15 min at 1,500 rpm, followed by incubation in the dark for 30 min. Radioactivity was counted in the TopCount microplate counter (Perkin Elmer) for 5 min. […] Specific binding was determined by subtracting nonspecific binding from total binding. All experiments were performed in duplicate using ten concentrations of a competing ligand, with ondansetron included as a control in every run. IC50 values were determined from specific binding data using XLfit4.1 curve fitting software from IDBS Ltd. Ki values were then calculated from the Cheng-Prusoff equation.

First: CC(C)OC(=O)N1C[C@H](C)N(c2nc3c(C(=O)NC4CC5CCCC(C4)N5C)cccc3o2)[C@@H](C)C1 (stereo partly drawn) [Example 143, Endo-N-(9-methyl-9-azabicyclo[3.3.1]nonan-3-yl)-2-((2S,6S)-4-(isopropoxycarbonyl)-2,6-dimethylpiperazin-1-yl)benzoxazole-4-carboxamide Hydrochloride]
Second: CC(C)COC(=O)N1C[C@H](C)N(c2nc3c(C(=O)NC4CC5CCCC(C4)N5C)cccc3o2)[C@@H](C)C1 (stereo partly drawn) [Example 138, Endo-N-(9-methyl-9-azabicyclo[3.3.1]nonan-3-yl)-2-((2S,6S)-4-(isobutoxycarbonyl)-2,6-dimethylpiperazin-1-yl)benzoxazole-4-carboxamide Hydrochloride]
The Ki of the first is 1.7-fold lower: 1.4 nM for the first, 2.4 nM for the second. The first binds more tightly here.

CNc1nc2c(C(=O)N[C@H]3C[C@H]4CCC[C@@H](C3)N4C)cccc2o1 [Example 34, Endo-N-(9-Methyl-9-azabicyclo[3.3.1]non-3-yl)-2-(methylamino)benzoxazole-4-carboxamide Hydrochloride] and COCCNc1nc2c(C(=O)N[C@H]3C[C@H]4CCC[C@@H](C3)N4C)cccc2o1 [Example 38, Endo-N-(9-Methyl-9-azabicyclo[3.3.1]nonan-3-yl)-2-(2-methoxyethylamino)benzoxazole-4-carboxamide Hydrochloride] are within 1.5-fold of each other in Ki: 5.3 nM for the first, 7.5 nM for the second.

CC(C)C(=O)N1C[C@H](C)N(c2nc3c(C(=O)NC4CC5CCCC(C4)N5C)cccc3o2)[C@@H](C)C1 (stereo partly drawn) [Example 135, Endo-N-(9-methyl-9-azabicyclo[3.3.1]nonan-3-yl)-2-((2S,6S)-4-isobutyryl-2,6-dimethylpiperazin-1-yl)benzoxazole-4-carboxamide Hydrochloride] and C[C@H]1CN(C(=O)C(C)(C)C)C[C@H](C)N1c1nc2c(C(=O)NC3CC4CCCC(C3)N4C)cccc2o1 (stereo partly drawn) [Example 130, Endo-N-(9-methyl-9-azabicyclo[3.3.1]nonan-3-yl)-2-((2S,6S)-2,6-dimethyl-4-pivaloylpiperazin-1-yl)benzoxazole-4-carboxamide Hydrochloride] are within 1.5-fold of each other in Ki: 2 nM for the first, 2.8 nM for the second.

First: CC(C)[C@H]1CNCCN1c1nc2c(C(=O)NC3CC4CCCC(C3)N4C)cccc2o1 (stereo partly drawn) [Example 76, Endo-N-(9-Methyl-9-azabicyclo[3.3.1]nonan-3-yl)-2-((S)-2-isopropylpiperazin-1-yl)benzoxazole-4-carboxamide Hydrochloride]
Second: CC1CNCCN1c1nc2c(C(=O)N[C@H]3C[C@H]4CCC[C@@H](C3)N4C)cccc2o1 (stereo partly drawn) [Example 25, Endo-N-(9-Methyl-9-azabicyclo[3.3.1]non-3-yl)-2-(2-methylpiperazin-1-yl)benzoxazole-4-carboxamide Dihydrochloride]
The Ki of the first is 2.8-fold lower: 9.8 nM for the first, 27.5 nM for the second. The first binds more tightly here.

CCC[C@H]1COCCN1c1nc2c(C(=O)NC3CC4CCCC(C3)N4C)cccc2o1 (stereo partly drawn) [Example 66, Endo-N-(9-Methyl-9-azabicyclo[3.3.1]nonan-3-yl)-2-((S)-3-propylmorpholino)benzoxazole-4-carboxamide Hydrochloride] and CC(C)C[C@H]1COCCN1c1nc2c(C(=O)NC3CC4CCCC(C3)N4C)cccc2o1 (stereo partly drawn) [Example 67, Endo-N-(9-Methyl-9-azabicyclo[3.3.1]nonan-3-yl)-2-((S)-3-isobutylmorpholino)benzoxazole-4-carboxamide Hydrochloride] are within 1.5-fold of each other in Ki: 4.1 nM for the first, 3.9 nM for the second.

First: CN1[C@@H]2CCC[C@H]1C[C@@H](NC(=O)c1cccc3oc(N4CCNC(=O)C4)nc13)C2 [Example 86, Endo-N-(9-Methyl-9-azabicyclo[3.3.1]nonan-3-yl)-2-(3-oxopiperazine-1-yl)benzoxazole-4-carboxamide Hydrochloride]
Second: C[C@H]1CNCCN1c1nc2c(C(=O)N[C@H]3C[C@H]4CCC[C@@H](C3)N4C)cccc2o1 [Example 41a, Endo-N-(9-Methyl-9-azabicyclo[3.3.1]nonan-3-yl)-2-[(S)-2-methylpiperazin-1-yl]benzoxazole-4-carboxamide Hydrochloride]
The Ki of the first is 4.7-fold higher: 66.2 nM for the first, 14.2 nM for the second. The second binds more tightly here.

O=C(NC1CN2CCC1CC2)c1cccc2oc(NCC(F)(F)F)nc12 (stereo not shown) [Example 109, Hydrochloride] and O=C(N[C@@H]1CN2CCC1CC2)c1cccc2oc(N3CCCCC3)nc12 [Example 4, (S)—N-(quinuclidine-8-yl)-2-(piperidin-1-yl)benzoxazole-4-carboxamide hydrochloride] are within 1.5-fold of each other in Ki: 47.9 nM for the first, 34.2 nM for the second.

Going from CC(C)C[C@H]1CN(Cc2ccccc2)CCN1c1nc2c(C(=O)NC3CC4CCCC(C3)N4C)cccc2o1 (stereo partly drawn) [Example 71, Endo-N-(9-Methyl-9-azabicyclo[3.3.1]nonan-3-yl)-2-((2S)-2-isobutyl-4-benzylpiperazin-1-yl)benzoxazole-4-carboxamide Hydrochloride] to CN1[C@@H]2CCC[C@H]1C[C@@H](NC(=O)c1cccc3oc(Nc4ccccc4)nc13)C2 [Example 5, Endo-N-(9-Methyl-9-azabicyclo[3.3.1]non-3-yl)-2-(phenylamino)benzoxazole-4-carboxamide Hydrochloride], the Ki falls from 48.6 nM to 6.25 nM (7.8-fold). The second binds more tightly here.

First: CN1[C@@H]2CCC[C@H]1C[C@@H](NC(=O)c1cccc3oc(N4CCNCC45CCCC5)nc13)C2 [Example 100, Endo-N-(9-Methyl-9-azabicyclo[3.3.1]nonan-3-yl)-2-(6,9-diazaspiro[4.5]decan-6-yl)benzoxazole-4-carboxamide Hydrochloride]
Second: CN1[C@@H]2CCC[C@H]1C[C@@H](NC(=O)c1cccc3oc(N4CCNc5ccccc54)nc13)C2 [Example 29, Endo-N-(9-Methyl-9-azabicyclo[3.3.1]non-3-yl)-2-(3,4-dihydroquinoxaline-1(2H)-yl)benzoxazole-4-carboxamide Dihydrochloride]
The Ki of the first is 3.2-fold higher: 11.4 nM for the first, 3.6 nM for the second. The second binds more tightly here.

First: CN1C2CCCC1CC(NC(=O)c1cccc3oc(NC4CC5CCCC(C4)N5C)nc13)C2 (stereo not drawn) [Example 37, Endo-N-(9-Methyl-9-azabicyclo[3.3.1]nonan-3-yl)-2-(9-Methyl-9-azabicyclo[3.3.1]non-3-ylamino)benzoxazole-4-carboxamide Trihydrochloride]
Second: CN(C)C(=O)CNc1nc2c(C(=O)N[C@H]3C[C@H]4CCC[C@@H](C3)N4C)cccc2o1 [Example 47, Endo-N-(9-Methyl-9-azabicyclo[3.3.1]nonan-3-yl)-2-(2-(dimethylamino)-2-oxoethylamino)benzoxazole-4-carboxamide Dihydrochloride]
The Ki of the first is 1.8-fold higher: 243 nM for the first, 137 nM for the second.

First: CN1CCN(c2nc3c(C(=O)NC4CN5CCC4CC5)cccc3o2)C(c2ccccc2)C1 (racemic) [Example 24, (S)—N-(quinuclidine-8-yl)-2-(4-methyl-2-phenylpiperazin-1-yl)benzoxazole-4-carboxamide Dihydrochloride]
Second: Nc1nc2c(C(=O)NC3CN4CCC3CC4)ccc(F)c2o1 [Example 112, (S)—N-(quinulidin-8-yl)-2-amino-7-fluorobenzoxazole-4-carboxamide Hydrochloride]
The Ki of the first is 3.1-fold higher: 103 nM for the first, 33.3 nM for the second. The second binds more tightly here.

C[C@H]1COCCN1c1nc2c(C(=O)NC3CC4CCCC(C3)N4C)cc(Cl)cc2o1 (stereo partly drawn) [Example 106, Endo-6-Chloro-N-(9-methyl-9-azabicyclo[3.3.1]nonan-3-yl)-2-((S)-3-methylmorpholino)benzoxazole-4-carboxamide Hydrochloride] and CN1CCN(c2nc3c(C(=O)N[C@H]4C[C@H]5CCC[C@@H](C4)N5C)cc(Cl)cc3o2)CC1 [Example 58, Endo-N-(9-methyl-9-azabicyclo[3.3.1]nonan-3-yl)-6-chloro-2-(4-methylpiperazin-1-yl)benzoxazole-4-carboxamide Hydrochloride] are within 1.5-fold of each other in Ki: 12.6 nM for the first, 11.9 nM for the second.

First: CC1CN(C(=O)N2CCCC2)CC(C)N1c1nc2c(C(=O)NC3CC4CCCC(C3)N4)cccc2o1 [Example 146, Endo-N-(9-azabicyclo[3.3.1]nonan-3-yl)-2-((2S,6S)-2,6-dimethyl-4-(pyrrolidine-1-carbonyl)piperazin-1-yl)benzoxazole-4-carboxamide hydrochloride]
Second: C[C@H]1CN(C)C(=O)[C@H](C)N1c1nc2c(C(=O)NC3CC4CCCC(C3)N4C)cccc2o1 (stereo partly drawn) [Example 120, Endo-N-(9-methyl-9-azabicyclo[3.3.1]nonan-3-yl)-2-((2S,6S)-2,4,6-trimethyl-3-oxopiperazine-1-yl)benzoxazole-4-carboxamide Hydrochloride]
The Ki of the first is 17-fold higher: 32.2 nM for the first, 1.9 nM for the second. The second binds more tightly here.

Compared with CN(C)c1nc2c(C(=O)N[C@H]3C[C@H]4COC[C@@H](C3)N4C)cccc2o1 [Example 30, Endo-N-(9-methyl-3-oxa-9-azabicyclo[3.3.1]non-7-yl)-2-(dimethylamino)benzoxazole-4-carboxamide Hydrochloride], CN1[C@@H]2CCC[C@H]1C[C@@H](NC(=O)c1c(F)ccc3oc(N)nc13)C2 [Example 128, Endo-N-(9-Methyl-9-azabicyclo[3.3.1]nonan-3-yl)-2-amino-5-fluorobenzoxazole-4-carboxamide Hydrochloride] is 1.6-fold higher in Ki: 79 nM for the first, 124 nM for the second. The first binds more tightly here.
